Here are results for 1 compound from PMC3885398, “Evaluation of the Antitumor Effects of BPR1J-340, a Potent and Selective FLT3 Inhibitor, Alone or in Combination with an HDAC Inhibitor, Vorinostat, in AML Cancer” (PLoS ONE, 2014).

Where “and” joins values, the source holds several entries; their conditions need not be identical. Equal entries are not always repeated.

The target of one data set is T1, FLT3 D835Y (Homo sapiens, UniProt P36888, D835Y).
T1 sequence (P36888 27-993 D835Y): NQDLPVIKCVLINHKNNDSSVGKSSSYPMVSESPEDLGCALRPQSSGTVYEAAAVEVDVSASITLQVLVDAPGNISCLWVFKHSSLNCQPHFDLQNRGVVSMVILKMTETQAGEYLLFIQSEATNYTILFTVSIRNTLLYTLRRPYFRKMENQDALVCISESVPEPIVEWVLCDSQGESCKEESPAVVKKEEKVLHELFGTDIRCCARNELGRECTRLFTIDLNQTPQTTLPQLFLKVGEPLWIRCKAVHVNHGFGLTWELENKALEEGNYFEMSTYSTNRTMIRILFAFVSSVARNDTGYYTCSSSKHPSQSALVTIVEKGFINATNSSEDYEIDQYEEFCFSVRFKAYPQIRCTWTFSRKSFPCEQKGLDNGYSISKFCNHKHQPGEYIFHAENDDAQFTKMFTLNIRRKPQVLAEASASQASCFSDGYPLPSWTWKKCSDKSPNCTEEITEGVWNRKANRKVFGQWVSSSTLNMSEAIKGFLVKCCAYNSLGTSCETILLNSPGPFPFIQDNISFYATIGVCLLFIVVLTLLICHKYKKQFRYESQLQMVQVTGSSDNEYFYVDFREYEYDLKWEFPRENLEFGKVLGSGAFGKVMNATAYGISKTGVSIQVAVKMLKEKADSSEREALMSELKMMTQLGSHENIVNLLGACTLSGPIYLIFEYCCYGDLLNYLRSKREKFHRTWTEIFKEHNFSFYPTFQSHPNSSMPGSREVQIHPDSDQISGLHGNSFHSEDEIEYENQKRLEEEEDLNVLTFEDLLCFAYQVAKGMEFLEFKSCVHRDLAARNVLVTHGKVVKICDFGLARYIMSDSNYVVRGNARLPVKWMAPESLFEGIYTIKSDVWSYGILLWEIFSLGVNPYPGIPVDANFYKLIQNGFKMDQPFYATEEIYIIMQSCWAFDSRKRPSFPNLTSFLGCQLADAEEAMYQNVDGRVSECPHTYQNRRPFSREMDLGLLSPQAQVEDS
Description: FLT3 phosphorylation in transfected HEK293T cells, Western blot. It is filed as cell-based. Also on record: expressed in transfected cells; host or cells: HEK293T. The conditions noted are these: HEK293T cells expressing FLT3-D835Y, 1 hr, FLT3 ligand 50 ng/mL 5 min. As for the experimental part: (§1) Cells were lysed in lysis buffer (50 mM Tris, pH 8.0, 150 mM NaCl, 1% Triton X-100, 0.5% sodium deoxycholate, 0.1% SDS, 1 mM sodium orthovanadate, 1 mM PMSF, and 1 mM DTT). Protein lysates were resolved by SDS-PAGE and transferred onto a polyvinylidene difluoride (PVDF) membrane (Millipore, Bedford, MA, USA). The membranes were immunoblotted with appropriate antibodies and detected using the SuperSignal reagent (Pierce, Rockford, IL, USA) followed by exposure to X-ray film.
(§2) To address whether BPR1J-340 was able to inhibit the FLT3 signaling pathway in FLT3-driven cells, MV4;11 cells were treated with different concentrations of BPR1J-340 for 1 hour, and the phosphorylation status of FLT3 and STAT5 (Signal Transducer and Activator of Transcription 5), a critical down-stream modulator that plays a major role in FLT3-ITD signal transduction for cell expansion and survival, was examined by Western blot analysis. […] To investigate the difference in sensitivity between FLT3-WT and the activating mutants FLT3-ITD and FLT3-D835Y to BPR1J-340, HEK293T cells engineered to express FLT3-WT or mutants FLT3 (FLT3-ITD, FLT3-D835Y) were analyzed. […]
(§3) Figure 2 BPR1J-340 inhibits FLT3-dependent signaling. […] The phosphorylation status of FLT3 and STAT5 were evaluated by Western blot analysis. […] The FLT3 phosphorylation status in the transfected cells was evaluated by Western blot analysis.

Data set [1] can be described thus: Pharmacokinetic analysis in rats. It is filed as in vivo, Sprague-Dawley rats. The method, then: The uses of animals were approved by The Institutional Care and Use Committee of the National Health Research Institutes. Briefly, male Sprague-Dawley rats weighing 300–400 g each were obtained from BioLASCO, Taiwan Co., Ltd., Ilan, Taiwan. One day prior dosing, rats were surgically prepared with a jugular-vein cannula and fasted overnight (∼18–20 hr). Water was available ad libitum. Food was provided at 4 hours after dosing. Single 1.5 mg/kg intravenous dose of BPR1J-340, as a PEG400/water (80/20, v/v) solution, was separately administered to groups of 3 rats each via the jugular-vein cannula. At 0 (prior to dosing), 2, 5, 15 and 30 min. and at 1, 2, 4, 6, 8 and 24 hr after dosing, a blood sample was collected. Plasma was separated from the blood by centrifugation (14,000 g for 15 min at 4°C in a Beckman Model AllegraTM 6R centrifuge) and stored in a freezer (−20°C) until analysis. All plasma samples were analyzed by LC-MS/MS. Plasma concentration data were analyzed with non-compartmental method for pharmacokinetic determination.

In a further data set the target is T2, FLT3-WT (Homo sapiens, UniProt P36888).
T2 construct: expressed in transfected cells; host or cells: HEK293T
Description: FLT3 phosphorylation in transfected HEK293T cells, Western blot. It is filed as cell-based. The following applies: HEK293T cells expressing FLT3-WT, 1 hr, FLT3 ligand 50 ng/mL 5 min. The method, then: as §1, §2, §3
On the technique in general: Immunoblotting shows a protein as a band on a membrane.

A further data set has as its target FLT3-ITD (Homo sapiens, UniProt P36888, ITD). Described as above. It counts as cell-based. The conditions noted are these: HEK293T cells expressing FLT3-ITD, 1 hr, FLT3 ligand 50 ng/mL 5 min. As for the experimental part:
as §1, §2, §3

The term IC50 denotes the concentration that inhibits the measured activity by half. As usually defined, the clearance is the rate of elimination divided by the concentration. A low value points to a low capacity for elimination. As a reminder, the half-life is the time needed for the level to fall by half in the phase considered. Read a low half-life as fast loss. Consider `CCc1cc(NC(=O)NCc2ccc(-c3cc(NC(=O)c4ccc(CN5CCN(C)CC5)cc4)[nH]n3)cc2)no1` [BPR1J-340, N1-(3-4-[([(5-ethyl-3-isoxazolyl)amino]carbonylamino)methyl]phenyl-1H-5-pyrazolyl)-4-[(4-methylpiperazino)methyl]benzamide], for which the 50% inhibitory concentration (IC50) is 10 to 100 nM and ~100 nM at FLT3 D835Y; 10 to 100 nM on FLT3-WT; 10 to 100 nM against FLT3-ITD. The maximum plasma concentration in data set [1] (Rat IV 1.5 mg/kg, at 2 min after dosing, 1.5 mg/kg) was 7.9 µM and 4,296 ng/mL. Moreover, the “plasma concentration maintained for 6 hours” value in data set [1] (Rat IV 1.5 mg/kg, for 6 hours) is given as “exceeded 80 ng/mL”. This compound also came in with a T1/2 in data set [1] (Rat IV, dose 1.5 mg/kg, listed as BRP1J-340, 1.5 mg/kg) of 8.8 ± 0.6 h. Further, in data set [1] (Rat, single 1.5 mg/kg), the “maximum achievable plasma concentration above the IC50 for FLT3-ITD inhibition” value is listed as “more than 272 fold”. In addition, the concentration at 24 h in data set [1] (male, Sprague-Dawley, plasma, Rat IV 1.5 mg/kg, 24 hour after dosing, read-out: plasma concentration C24 hour) is 9.9 ng/mL and 18 nM. The same compound yielded a clearance in data set [1] (male, Sprague-Dawley, plasma, Rat IV, dose 1.5 mg/kg) of 20.4 ± 5.2 mL/min/kg. In data set [1] (male, Sprague-Dawley, plasma, Rat IV, dose 1.5 mg/kg, read-out: AUC(0–24)), the AUC(0-t) is 1130 ± 260 ng·h/mL. Moreover, the Vd in data set [1] (male, Sprague-Dawley, plasma, Rat IV, dose 1.5 mg/kg, read-out: Vss) was determined as 10.3 ± 2.5 L/kg. Besides, in data set [1] (male, Sprague-Dawley, rat, plasma, iv, 1.5 mg/kg, Rat IV), the half-life is roughly 8.8 h.
